# Test results published in US11028127B2, “Peptides capable of reactivating p53 mutants” (Yeda Research and Development Co. Ltd., priority 2013, dated 2021).
# Tests used:
# Assay type in all cases: cell-based
# R249S p53 = target: T1, R249S p53 (Homo sapiens, UniProt P04637, R249S); assay: TK-RGC-luc luciferase reporter assay in H1299 p53−/− cells; settings: peptides added 24 hours after transfection, read at 48 hours
# T1 construct: expressed in transfected cells; host or cells: H1299 p53-/- cells, transient transfection
# Protocol: FIG. 12 is a bar graph illustrating the relative luciferase activity (cLuc/gLuc) as measured in the various tested samples. Transient transfection of H1299 p53^−/− cells was performed with plasmids expressing WT p53, R175H p53, R249S p53 or empty vector as control, together with TK-RGC-luc, where luciferase expression is under control of a tandem array of multiple p53-responsive elements. 24 hours after transfection, cells were treated with the test peptides. 48 hours after transfection, a sample of the culture medium was taken for bioluminescence measurements.
# The oligonucleotide (RGC-W) that has the sequence 5′-[…]-3′ (SEQ ID NO:362), and the oligonucleotide mutant RGC oligonucleotide (RGC-M) that has the sequence 5′-[…]-3′ (SEQ ID NO:363), are both derived from Kern et al. (Kern, S. E., et al., Identification of p53 as a sequence-specific DNA-binding protein. Science, 1991. 252(5013): p. 1708-11), and serve as a consensus binding sites for WT p53.
# These motifs were cloned into the KPN and Eco53IK sites in pCLuc Mini-TK 2 Vector (NEB, Cat No. N0324S ). The Luciferase construct was used to assess transcriptional activation of p53 in test cells.
# H1299 p53-null cells were cultured overnight and then transfected with the luciferase constructs using MaxFect Transfection Agent (Mediatech) according to the manufacturer's protocol. Prior to the transfection, cell medium was exchanged to OPTI-MEM.
# The cells were treated with different peptides 24 hours after transfection. After additional 24 hours, growth medium was collected to 96 black plates: 40 μl for Cluc assay, and 20 μl for Gluc assay. Assay was performed using Turner BioSystems Modulus Microplate. Value was calculated by Cluc/gluc/NT (non-treated cells).
# As additional screening strategy used to identify reactivating peptides was performed in vivo and is based on a reporter gene assay. It measures p53 transcriptional activity by quantifying the activity of a reporter gene, placed under the control of a promoter containing 17 repeats of a p53 consensus binding site (RGC). The luciferase assay is performed on living cells and therefore provides an indication on the effect of test peptides on Mut-p53 function in the context of intact cells.
# For the in vivo luciferase based screening, H1299 cells were used. Transient transfection of these p53^−/− cells was performed with vectors expressing WT p53, R175H p53, R249S p53 or empty vector as control (Suad, O., et al., Structural basis of restoring sequence-specific DNA binding and transactivation to mutant p53 by suppressor mutations. J. Mol. Biol., 2009. 385(1): p. 249-65). Cells were also co-transfected with TK-RGC-luc (CAT. No. NEB, N0324S). 24 hours after transfection, cells were treated with the test peptides. […]
# [1] = system: WI-38 fibroblasts expressing mouse Noxa shRNA (WI38-m-Noxa-i); assay: Crystal violet viability assay; settings: 48 hours
# Protocol: (§1) FIGS. 13A and 13B are bar graphs illustrating the effect of various tested peptides on the viability of cells expressing Mut-p53, as determine by crystal violet assay. WI-38 fibroblasts expressing endogenous WT p53 were infected with retroviruses expressing either mouse Noxa shRNA (WI38-m-Noxa-i) as a nonspecific control or the R175H p53 mutant for stable overexpression of mutant p53 (WI38-175). The cells (WI38-m-Noxa-i or WI38-175) were seeded at 3000 cells per well in 96-well plates. Tested peptides were added to the cells. Different concentrations of etoposide (cytotoxic drug, 4′-Demethyl-epipodophyllotoxin 9-[4,6-O—(R)-ethylidene-beta-D-glucopyranoside], 4′-(dihydrogen phosphate) were used as positive control for cell death and as a standard reference curve to assess the effect of tested peptides. 48 hours after treatment, cells were washed with PBS to exclude dead cells and debris, and cells that remained attached to the plate were stained with crystal-violet for 30 minutes. Crystal violet was removed and cells were washed 4 times with PBS to remove residual crystal violet. Then, the stained cells were dissolved in 10% acetic acid and plates were taken for optical density measurement at 595 nM (optimal for crystal violet). The bar graphs of FIGS. 13A and 13B show the optical density reads at 595 nm, which reflect the number of cells in the plate after treatment, normalized to the non-treated (NT) samples.
# (§2) Cells were cultured in 96 wells plates with 2500-4000 cells/well in 0.1 ml and incubated overnight at 37° C. in order to adhere to the plate. Serial dilutions of different peptides (0.5 μg/ml) were added in 0.1 ml aliquots and the plates incubated for additional 48 h at 37° C. Then medium was removed and cell lysis was determined by staining the cells with crystal violet (0.5%) in methanol/water (1:4, v/v), 50 μl each well, for 10 min, followed by 3 washes with PBS. Afterwards, 10% acetic acid (50 μl) was added to each well and shaken for 10 min. Then, automatic plate reading was performed at 595 nm.
# (§3) An important indication for the reactivating peptides activity is their effect in-vivo on cancer cells that express Mut-p53. In particular, reactivating peptides that can cause specifically Mut-p53-dependent death of cancer cells, with minimal toxic effects on normal cells are desired. A crystal-violet based viability assay, in which crystal-violet is employed to stain cells that adhere to the plate and therefore the amount of dye is proportional to cell number was used to determine the effect of the various test peptides on Mut-p53-dependent death.
# (§4) Cells were plated in 96-well plates, at calibrated density that allows them to grow for 48 hours without reaching confluence. Peptides are added 6 hours later. Different concentrations of etoposide (cytotoxic drug) were used as positive control for cell death and as a standard reference curve to assess the effect of tested peptides. 48 hours after treatment, cells were washed with PBS to exclude dead cells and debris, and cells that remained attached to the plate were stained with crystal-violet for 30 minutes. Crystal-violet was removed and cells were washed with PBS 4 times to eliminate remains of crystal-violet. Then, the stained cells were dissolved in 10% acetic acid and plates were taken for optical density measurement at 595 nM (specific to crystal-violet).
# (§5) FIGS. 13A and 13B illustrate a representative experiment of screening performed on 128 synthesized peptides. In this experiment, WI-38 fibroblasts were used. These cells express endogenous WT p53 and were further infected with a virus expressing either mouse Noxa shRNA, as a nonspecific control or the R175H p53 mutant for stable overexpression of mutant p53. Both of these sub-lines (mNoxa or R175H p53) were seeded at 3000 cells per well and treated as described above. […]
# [2] = system: WI-38 fibroblasts overexpressing R175H p53 (WI38-175); assay: Crystal violet viability assay; settings: 48 hours; much more prominent than in mNoxa-i control cells
# Protocol: as §1, §2, §3, §4, §5
sequence,measurement,setting,value
YRRLLIGMMWRRRRRRRRRRR [pCAP-68],transcription from TK-RGC-luc in the presence of R249S p53,R249S p53,induce transcription from TK-RGC-luc
same,"effect on cell numbers, mNoxa-i control WI-38 cells",[1],toxic effect on both cell sub-lines
same,"reduction in cell numbers, R175H p53 expressing WI-38 cells",[2],toxic effect on both cell sub-lines
